The record followed here is patent US5684026A, “Aminocyclopentane derivative” (priority 1994, dated 1997).

In general, Ki refers to the dissociation constant of the complex between target and ligand, obtained from inhibition or displacement.

The target in this test is T1, α-glucosidase I (Baker's yeast) (Saccharomyces cerevisiae, UniProt P53008).
T1 construct: made in house; host or cells: Baker's yeast (native enzyme, prepared by the cited method)
T1 sequence (P53008 25-833 limits assumed): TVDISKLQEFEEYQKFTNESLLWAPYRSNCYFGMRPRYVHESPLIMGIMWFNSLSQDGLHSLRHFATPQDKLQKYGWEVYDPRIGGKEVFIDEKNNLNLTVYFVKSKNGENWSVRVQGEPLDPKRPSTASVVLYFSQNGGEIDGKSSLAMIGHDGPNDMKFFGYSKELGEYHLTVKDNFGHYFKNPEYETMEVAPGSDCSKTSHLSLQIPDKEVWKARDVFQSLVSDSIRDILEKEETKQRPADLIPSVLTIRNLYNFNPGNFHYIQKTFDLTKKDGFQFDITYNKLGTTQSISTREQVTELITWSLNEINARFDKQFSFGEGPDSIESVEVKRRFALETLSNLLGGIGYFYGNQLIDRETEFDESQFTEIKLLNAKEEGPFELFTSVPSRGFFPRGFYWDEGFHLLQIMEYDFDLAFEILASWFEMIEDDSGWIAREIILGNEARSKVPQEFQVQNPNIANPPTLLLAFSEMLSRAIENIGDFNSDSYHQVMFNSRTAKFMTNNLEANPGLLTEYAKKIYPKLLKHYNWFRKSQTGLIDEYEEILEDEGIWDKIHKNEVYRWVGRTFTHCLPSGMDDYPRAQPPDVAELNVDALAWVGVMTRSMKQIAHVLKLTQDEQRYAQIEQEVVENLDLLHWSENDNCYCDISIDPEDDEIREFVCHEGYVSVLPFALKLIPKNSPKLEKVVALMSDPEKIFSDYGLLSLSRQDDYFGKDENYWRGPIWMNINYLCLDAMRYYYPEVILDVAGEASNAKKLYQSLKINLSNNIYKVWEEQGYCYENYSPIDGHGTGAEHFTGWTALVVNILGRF
As to the kind of experiment: Inhibitory activity on α-glucosidase I (Ki). Type of test: biochemical. The conditions noted are these: α-glucosidase I, substrate 0.25-4.0 mM, 37° C., 1 hour; read-out: Ki. As to the method:
The α-glucosidase I (Baker's yeast) and its substrate (α-D-Glcl→2α-D-Glcl→3α-D-Glc-O(CH2)6 COOCH3) employed herein were prepared in accordance with the method of I. Neverova et al., Anal. Biochem., 222, 190-196 (1994).
The following measurements were performed by the methods described in this literature.
Namely, 25 μl of a buffer solution containing α-glucosidase I was added to a microtube containing the above-mentioned sample and the substrate (α-D-Glcl→2α-D-Glcl→3α-D-Glc-O(CH2)6 COOCH3). After incubating at 37° C. for 1 hour, a 1.25M tris hydrochloride buffer solution (pH 7.6, 25 μl) was added to thereby cease .the reaction. Then the reaction mixture was transferred onto a microplate followed by the addition of 250 μl of a reaction buffer solution [developing solution; 1M tris hydrochloride buffer solution (pH 7.2) containing glucose oxidase (5 units/ml, manufactured by Sigma), horseradish peroxidase (1 purpurogallin units, manufactured by Sigma) and o-dianisidine dihydrochloride (40 μg/ml)]. Then the mixture was incubated at 37° C. for 30 minutes or until an increase in the absorbance attained a plateau. Then the absorbance (A450-650) of the o-dianisidine formed and oxidized by this enzyme reaction was measured. As a blank, the above reaction was repeated but adding neither the above-mentioned sample nor substrate and the absorbance was measured. Also, the above-mentioned reaction buffer solution was added to D-glucose of a known concentration and the resulting mixture was incubated followed by the measurement of the absorbance to thereby examine a relationship between D-glucose concentration and absorbance. Each measurement was effected in two wells at the same time.
Based on the above-mentioned relationship between D-glucose concentration and absorbance, the amount of glucose liberated from the substrate due to the enzyme reaction of α-glucosidase I in the presence of the sample was determined. From the result thus obtained, Km was determined and then Ki was determined from the sample amount and the Km value.

For `OC[C@@]12OC(Nc3ccccc3)=N[C@@H]1[C@H](O)[C@@H](O)[C@@H]2O` [Compound 1-2L, (1S,5R,6S,7R,8S)-1-hydroxymethyl-3-phenylamino-2-oxa-4-azabicyclo[3.3.0]oct-3-ene-6,7,8-triol], the inhibition constant Ki is 51 µM.
